Source: patent US20100136029A1, “Use of Tri-Substituted Glycerol Compounds for the Treatment of Hematological Malignancies” (UNIVERSITATSKLINIKUM HAMBURG-EPPENDORF, priority 2006, published 2010)
Entries after “also recorded” stand apart in the source; their conditions may differ.

How the values were obtained:
Jurkat cells = assay: cells; conditions: Homo sapiens, 20 h
Protocol: Cell culture was performed as described in FIG. 1. ET-18-OCH3 was added in a final concentration of 2.5 or 5.0 μg/ml (“E2.5” and “E5”, respectively) without or in combination with 5 or 10 ng/ml bortezomib (“Vel5” and “Vel10”, respectively), and the cells were incubated for 20 h. Cell death was assessed as described in FIG. 1. The results are expressed as mean±SEM of three independent experiments.
(§1) The following human cell lines were used: • 1. KMS-12-BM (DMSZ no. ACC 551), bone marrow cells; myeloma/plasmacytoma; none of the genetic alterations defined herein; Chesi, M. et al. (2001), supra. • 2. K562 (ATCC no. CCL-243); bone marrow cells; CML; none of the genetic alterations defined herein; Delgado, M. D. et al. (2001), supra. • 3. […] OPM-2 (ATCC no. CRL-13007); lymphoblast cells; myeloma; t(4;14) chromosomal translocation; K650E FGFR3 gene mutation (AAG→GAG at codon 650); Chesi, M. et al. (2001), supra. • 5. NCI-H929 (ATCC no. CRL-9068); bone marrow cells; myeloma/plasmacytoma; t(4;14) chromosomal translocation; N13-G>D N-ras gene mutation (GGT→GAT at codon 13); Chesi, M. et al. (2001), supra. • 6. U266 (ATCC no. TIB-196); peripheral blood cells; myeloma/plasmacytoma; none of the genetic alterations defined herein; Chesi, M. et al. (2001), supra. • 7. HL60 (ATCC no. CCL-240); peripheral blood cells; AML; N61-Q>R N-ras gene mutation (CAA→CGA at codon 61); Bos, J. L. et al. (1984), supra. • 8. Jurkat (ATCC no. TIB-152); peripheral blood cells; ALL; 2 by deletion and 9 by insertion at codon 234 in exon 7 of the PTEN gene (resulting in downstream stop codons); Sakai, A. et al. (1998), supra.
(§2) The cells were grown in 96-well tissue culture plates in a volume of 200 μl to a concentration of 1×10^6 cells/ml. Then, the cells were incubated for 20 h with a final concentration of 5 μg/ml, 10 μg/ml, and 20 μg/ml 1-O-octadecyl-2-O-methyl-glycero-3-phosphocholine (ET-18-OCH3), respectively. Cell death was assessed by staining the cells with 7-amino-actinomycin D (Calbiochem, Darmstadt, Germany; final concentration 200 μg/ml) and analyzed via flow cytometry using a FACS-Scan flow cytometer (BD Biosciences, San Jose, Calif., USA) as described (see, e.g., Schmid, I. et al. (1994) J. Immunol. Meth. 170, 145-157; Ayuk, F. A. et al. (2005) Exp. Hematol. 33, 1531-1536).
(§3) The cells were again grown in 96-well tissue culture plates in a volume of 200 μl to a concentration of 1×10^6 cells/ml. Then, the cells were incubated for 20 h with the respective drugs. […] The cytotoxic effect of ET-18-OCH3 in combination with bortezomib was determined in Jurkat, HL60 cells, and RPMI8226 cell, whereas the cytotoxic effect of ET-18-OCH3 in combination with cytarabine, fludarabine and etoposide, respectively, in Jurkat and HL60 cells. Cell death was assessed as described in example 1.

HL60 cells = assay: Cytotoxicity (cell death) by 7-amino-actinomycin D staining and flow cytometry, HL60 cells
Protocol: (§4) The following cell lines were used: KMS-12-BM, K562, RPMI8226, OPM-2, NCI-H929, U266, and HL60. The cells were grown in 96-well tissue culture plates in a volume of 200 μl to a concentration of 1×10^6 cells/ml. Then, the cells were incubated for 20 h with 5 μg/ml, 10 μg/ml, and 20 μg/ml ET-18-OCH3 (final concentrations), respectively. Cell death was assessed by staining the cells with 7-amino-actinomycin D (final concentration 200 μg/ml) and analyzed via flow cytometry as described (see, e.g., Schmid, I. et al. (1994) J. Immunol. Meth. 170, 145-157; Ayuk, F. A. et al. (2005) Exp. Hematol. 33, 1531-1536).
as §1, §2, §3

RPMI8226 = assay: Cytotoxicity (cell death) by 7-amino-actinomycin D staining and flow cytometry, RPMI8226 cells
Protocol: as §4, §1, §2, §3

K562 = assay: Cytotoxicity (cell death) by 7-amino-actinomycin D staining and flow cytometry, K562 cells; type: cell-based, human; conditions: K562, 20 h, 5, 10 and 20 μg/ml ET-18-OCH3, FIG. 1
Description: (§5) The following human cell lines were used: • 1.

KMS-12-BM = assay: Cytotoxicity (cell death) by 7-amino-actinomycin D staining and flow cytometry, KMS-12-BM cells; type: cell-based, human; conditions: 20 h, 5, 10 and 20 μg/ml ET-18-OCH3, FIG. 1
Description: as §5

NCI-H929 = assay: Cytotoxicity (cell death) by 7-amino-actinomycin D staining and flow cytometry, NCI-H929 cells; type: cell-based
Description: as §5

U266 cells = assay: Cytotoxicity (cell death) by 7-amino-actinomycin D staining and flow cytometry, U266 cells; type: cell-based, human; conditions: U266, 20 h, 5, 10 and 20 μg/ml ET-18-OCH3, FIG. 1
Description: as §5

OPM-2 cells = assay: Cytotoxicity (cell death) by 7-amino-actinomycin D staining and flow cytometry, OPM-2 cells; type: cell-based
Description: as §5

Q: How did the cytotoxicity at 0.005 µg/mL (Jurkat cells) turn out when CC(C)C[C@H](NC(=O)[C@H](Cc1ccccc1)NC(=O)c1cnccn1)B(O)O [Bortezomib, bortezomib] was run?
A: 0.4 ± 0.5%

Q: What about the cytotoxicity at 0.01 µg/mL (Jurkat cells) of the same molecule?
A: 3.6 ± 1.4%

Q: And the cytotoxicity at 0.005 µg/mL (HL60 cells; Homo sapiens, HL-60, 20 h)?
A: 2.7 ± 1.9%

Q: And the cytotoxicity at 0.01 µg/mL (HL60 cells; Homo sapiens, HL-60, 20 h)?
A: 10.9 ± 3.7%

Q: What about the cytotoxicity at 0.005 µg/mL (RPMI8226; Homo sapiens, RPMI-8226, 20 h) of the same molecule?
A: 7.3 ± 4.5%

Q: What about the cytotoxicity at 0.01 µg/mL (RPMI8226; Homo sapiens, RPMI-8226, 20 h) of the same molecule?
A: 25.1 ± 4%

Q: Which cytotoxicity at 10 µM (Jurkat cells) does the source give for Nc1ccn([C@@H]2O[C@H](CO)[C@@H](O)[C@@H]2O)c(=O)n1 [Cytarabine, cytarabine] here?
A: 11.1 ± 0.5%

Q: What about the cytotoxicity at 40 µM (Jurkat cells) of the same molecule?
A: 12.4 ± 1.2%

Q: What about the cytotoxicity at 10 µM (HL60 cells; Homo sapiens, HL-60, 20 h) of the same molecule?
A: 24 ± 2.8%

Q: And the cytotoxicity at 40 µM (HL60 cells; Homo sapiens, HL-60, 20 h)?
A: 26.9 ± 5%

Q: Which “cytotoxic effect (cell death) in words” value (K562) does the source give for CCCCCCCCCCCCCCCCCCOCC(COP(=O)([O-])OCC[N+](C)(C)C)OC (stereo not shown) [ET-18-OCH3, 1-O-octadecyl-2-O-methyl-glycero-3-phosphocholine] here?
A: dose-dependent effect; also recorded: significantly reduced or even almost abolished

Q: What about the “cytotoxic effect (cell death) in words” value (KMS-12-BM) of the same molecule?
A: significantly reduced or even almost abolished; also recorded: dose-dependent effect

Q: And the cytotoxicity at 2.5 µg/mL (Jurkat cells)?
A: 2.1 ± 1%

Q: What about the cytotoxicity at 5 µg/mL (Jurkat cells) of the same molecule?
A: 13.1 ± 5.3%

Q: What about the “cell death in words” value (NCI-H929; NCI-H929, 20 h, 20 μg/ml ET-18-OCH3, FIG. 1) of the same molecule?
A: almost complete cell death

Q: What about the “cytotoxic effect, dose dependence” value (NCI-H929; NCI-H929, 20 h, 5, 10 and 20 μg/ml ET-18-OCH3, FIG. 1) of the same molecule?
A: dose-dependent effect

Q: What about the “cytotoxic effect, dose dependence” value (HL60 cells) of the same molecule?
A: dose-dependent effect

Q: What about the “cell death in words” value (HL60 cells; HL60, 20 h, 20 μg/ml ET-18-OCH3, FIG. 1) of the same molecule?
A: almost complete cell death

Q: What about the cytotoxicity at 2.5 µg/mL (HL60 cells; Homo sapiens, HL-60, 20 h) of the same molecule?
A: 11.3 ± 7.3%

Q: And the cytotoxicity at 5 µg/mL (HL60 cells; Homo sapiens, HL-60, 20 h)?
A: 35 ± 15.9%

Q: What about the “cytotoxic effect (cell death) in words” value (U266 cells) of the same molecule?
A: do not respond to ET-18-OCH3 at all; also recorded: significantly reduced or even almost abolished

Q: What about the cells died (OPM-2 cells; OPM-2, 20 h, 20 μg/ml ET-18-OCH3, FIG. 1) of the same molecule?
A: about 75%

Q: What about the “cytotoxic effect, dose dependence” value (OPM-2 cells; OPM-2, 20 h, 5, 10 and 20 μg/ml ET-18-OCH3, FIG. 1) of the same molecule?
A: dose-dependent effect

Q: What about the cytotoxicity at 2.5 µg/mL (RPMI8226; Homo sapiens, RPMI-8226, 20 h) of the same molecule?
A: 11.2 ± 8.1%

Q: What about the cytotoxicity at 5 µg/mL (RPMI8226; Homo sapiens, RPMI-8226, 20 h) of the same molecule?
A: 34.7 ± 13.2%

Q: And the “cell death in words” value (RPMI8226; RPMI8226, 20 h, 20 μg/ml ET-18-OCH3, FIG. 1)?
A: almost complete cell death

Q: And the “cytotoxic effect, dose dependence” value (RPMI8226; RPMI8226, 20 h, 5, 10 and 20 μg/ml ET-18-OCH3, FIG. 1)?
A: dose-dependent effect

Q: COc1cc([C@@H]2c3cc4c(cc3[C@@H](O[C@@H]3O[C@@H]5CO[C@@H](C)O[C@H]5[C@H](O)[C@H]3O)[C@H]3COC(=O)[C@H]23)OCO4)cc(OC)c1O [Etoposide, etoposide] was tested. Which cytotoxicity at 1 µM (Jurkat cells) did it give?
A: 5.9 ± 1.1%

Q: What about the cytotoxicity at 2.5 µM (Jurkat cells) of the same molecule?
A: 10 ± 0.8%

Q: And the cytotoxicity at 5 µM (Jurkat cells)?
A: 16.8 ± 8.4%

Q: What about the cytotoxicity at 1 µM (HL60 cells; Homo sapiens, HL-60, 20 h) of the same molecule?
A: 4.1 ± 0.7%

Q: What about the cytotoxicity at 2.5 µM (HL60 cells; Homo sapiens, HL-60, 20 h) of the same molecule?
A: 10.7 ± 5.4%

Q: And the cytotoxicity at 5 µM (HL60 cells; Homo sapiens, HL-60, 20 h)?
A: 23.3 ± 8.2%

Q: Which results are given for Nc1nc(F)nc2c1ncn2[C@@H]1O[C@H](CO)[C@@H](O)[C@@H]1O [Fludarabine, fludarabine]?
A: cytotoxicity at 10 µM (Jurkat cells): 2.4 ± 0.9%; cytotoxicity at 50 µM (Jurkat cells): 6.2 ± 2.4%; cytotoxicity at 10 µM (HL60 cells; Homo sapiens, HL-60, 20 h): 13.8 ± 9.4%; cytotoxicity at 50 µM (HL60 cells; Homo sapiens, HL-60, 20 h): 37.2 ± 4.6%
